Laboratory results reported in ChEMBL document CHEMBL5335841, “In vitro biological evaluation and in silico studies of linear diarylheptanoids from Curcuma aromatica Salisb. as urease inhibitors” (RSC Med Chem, 2024).

How the values were obtained:
[1] = Inhibition of urease (unknown origin) using urea as substrate preincubated for 30 mins followed by substrate addition and measured after 20 mins by red phenol reagent based assay
[2] = Inhibition of urease (unknown origin) at 250 uM using urea as substrate preincubated for 30 mins followed by substrate addition and measured after 20 mins by red phenol reagent based assay relative to control; conditions: time 50.0 min

| SMILES | IC50 [1] [µM] | inhibition [2] [%] |
| --- | --- | --- |
| NC(=O)NO [HYDROXYUREA] | 77.5 | – |
| COc1cc(CC[C@@H](O)C[C@@H](O)CCc2ccc(O)cc2)ccc1O (relative stereo) | 153 | – |
| COc1cc(CC[C@@H](O)C[C@H](O)CCc2ccc(O)c(O)c2)ccc1O (relative stereo) | 21.8 | – |
| COc1cc(CC[C@H](O)C[C@H](O)CCc2cc(OC)c(O)c(OC)c2)ccc1O (relative stereo) | > 250 | 27.3 |
| COc1cc(CC[C@@H](O)C[C@H](O)CCc2cc(OC)c(O)c(OC)c2)ccc1O (relative stereo) | > 250 | 14.3 |
| Oc1ccc(CC[C@H](O)C[C@H](O)CCc2ccc(O)c(O)c2)cc1 (relative stereo) | 9.6 | – |

Next, values leading:

| IC50 [1] [µM] | inhibition [2] [%] | SMILES |
| --- | --- | --- |
| 129 | – | CC(=O)O[C@H](CCc1ccc(O)c(O)c1)C[C@H](CCc1ccc(O)cc1)OC(C)=O (relative stereo) |
| 223 | – | COc1cc(CC[C@H](C[C@H](CCc2ccc(O)cc2)OC(C)=O)OC(C)=O)ccc1O (relative stereo) |
| 228 | – | COc1cc(CC[C@@H](O)C[C@@H](O)CCc2ccc(O)cc2)cc(OC)c1O (relative stereo) |
| > 250 | 3.3 | COc1cc(CC[C@H](C[C@H](CCc2ccc(O)cc2)OC(C)=O)OC(C)=O)cc(OC)c1O (relative stereo) |
